Test results taken from article PMC10096842, “Identification of Flavone Derivative Displaying a 4′-Aminophenoxy Moiety as Potential Selective Anticancer Agent in NSCLC Tumor Cells” (Molecules, 2023).

How the values were obtained:
[1] = LogP determination (1-octanol/PBS partition, UV-vis); format: physicochemical; conditions: 1-octanol/PBS, pH 7.4, 1-octanol/PBS pH 7.4; read-out: Experimental LogP
Procedure: LogP was determined as previously described. Briefly, solutions of each APF were prepared in 1-octanol, and UV-vis spectra were acquired to determine the λmax. After having placed 2.5 mL of each solution in 10 mL conical centrifuge tubes, PBS was added (2.5 mL, pH 7.4) and the biphasic system was mixed using a vortex mixer (VELP Scientifica, Usmate Velate MB, Italy) followed by centrifugation (2000× g, 5 min). Then, the octanol phase absorption was measured at λmax. The partition coefficient Ko/w was calculated according to the following equation:Ko/w = [APF]oct/[APF]PBS = […] where Ai is the initial measured absorbance in octanol, pre-extraction, and Af is the final measured absorbance in octanol, post-extraction.

[2] = test system: human dermal fibroblasts (HDF); assay: MTT cell viability assay, HDF; format: cell-based; conditions: Fibroblast, 72 h
Procedure: (§1) The human non-small cell lung cancer (NSCLC) and Human Dermal Fibroblasts (HDF) cell lines were all obtained from the American Type Culture Collection (ATCC). The H1975 (CRL-5908™) cell line was grown in RPMI 1640 medium (ECB2000) while the A549 (CCL-185™) and HDF were grown in complete DMEM medium (ECM0095) All cultures were supplemented with 10% fetal bovine serum (FBS), 2 mM L-glutamine, 100 U/mL penicillin, and 100 µg/mL streptomycin,. All cell lines were routinely maintained in 75 cm^2 flasks in a cell incubator at 37 °C, 5% CO2, and 95% relative humidity. The cell cultures were detached by trypsinization with 0.5% trypsin in PBS containing 0.025% EDTA. All cell culture reagents were supplied by Euroclone (Milan, Italy).
(§2) The number of metabolically active cells, and thus cell viability, was assessed by a 3-(4,5-dimethylthiazol-2-yl)-2,5-diphenyltetrazolium bromide (MTT) assay as previously described. The NSCLC cell lines (A549 and H1975) and HDF were seeded in 96-well plates to reach 50% confluence at 24 h; then, the medium was removed and replaced with 0.2 mL of fresh culture medium containing increasing compound concentrations (0–160 µM). After 72 h, the medium from each well was removed and replaced with fresh medium supplemented with MTT at a final concentration of 200 µg/mL. After incubation for 4 h at 37 °C, 0.2 mL of DMSO was added to each well followed by multiwell shaking for 4 min. The absorbance was read on a multiwell scanning microplate reader (BioTek Synergy HT MicroPlate Reader Spectrophotometer, BioTek Instruments Inc., Winooski, VT, USA) at 570 nm using the extraction buffer as a blank. The optical density in the control group (untreated cells) was considered as 100% viability. The relative cell viability (%) was calculated as (OD570 of treated samples/OD570 of untreated samples) × 100. Dose-dependent curves were therefore generated for the cytotoxic studies. The 50% inhibiting concentration (IC50) was determined by non-linear regression analysis with a three-parameter fit by utilizing SigmaPlot 12.0 Software, USA, Systat Software, Inc. SigmaPlot for Windows. Each experiment was performed at least five times in triplicate.

[3] = test system: A549 NSCLC cells; assay: MTT cell viability assay, A549; format: cell-based, human; conditions: for IC50: Homo sapiens, A549, 72 h, MTT; for SI (Selectivity Index): IC50 HDF / IC50 A549
Procedure: as §1, §2

[4] = test system: H1975 NSCLC cells; assay: MTT cell viability assay, H1975; format: cell-based, human; conditions: for IC50: Homo sapiens, NCI-H1975, 72 h, H1975, 72 h, MTT; for SI (Selectivity Index): IC50 HDF / IC50 H1975
Procedure: as §1, §2

[5] = test system: advanced NSCLC; set-up: method as in PMID 12177774, PMID 17912235, PMID 36674503; conditions: treatment of advanced NSCLC; cited from earlier work

Row | logP [1] | IC50 [3] | IC50 [4] | SMILES | IC50 [2] | SI (Selectivity Index) [3] | SI (Selectivity Index) [4] | overall response rate [5]
1 | 2.9 ± 0.2 | 32 ± 5 µM | > 160 µM | Nc1ccc(Oc2cccc3oc(-c4cccc(Oc5ccccc5)c4)cc(=O)c23)cc1 [APF-4, 5-(4-aminophenoxy)-2-(3′-phenoxy)phenyl-4H-chromen-4-one] | > 160 µM | >5 | – | –
2 | 3.2 ± 0.3 | 7 ± 3 µM | 10 ± 5 µM | Nc1ccc(Oc2ccc3oc(-c4ccc(Oc5ccccc5)cc4)cc(=O)c3c2)cc1 [APF-5, 6-(4-aminophenoxy)-2-(4′-phenoxy)phenyl-4H-chromen-4-one] | 55 ± 2 µM | 7 | 5.5 | –
3 | – | 0.8 ± 0.2 µM | 2.5 ± 0.4 µM | COc1cccc2c1C(=O)c1c(O)c3c(c(O)c1C2=O)C[C@@](O)(C(=O)CO)C[C@@H]3O[C@H]1C[C@H](N)[C@H](O)[C@H](C)O1 [Doxorubicin, reference compound] | 14 ± 4 µM | 18 | 6 | 30–50%
